Experimental data taken from publication PMC11178805, “Ligand-based design of [^18F]OXD-2314 for PET imaging in non-Alzheimer’s disease tauopathies” (Nature Communications, 2024).
Values joined by “and” are separate entries in the source; they are usually repeats but may differ in a detail not shown here. Equal values may be shown once.

Tests used:
[1] = biological target: T1, 4R-tau aggregates in PSP tissue (Homo sapiens, UniProt P10636); assay: Competition binding vs [^3H]OXD-2115 in PSP tissue homogenates; settings: vs [^3H]OXD-2115, PSP tissue homogenates, n = 1
T1 construct: tissue Neurodegenerative Disease Brain Bank at UCSF
T1 sequence (P10636 1-441 isoform P10636-8): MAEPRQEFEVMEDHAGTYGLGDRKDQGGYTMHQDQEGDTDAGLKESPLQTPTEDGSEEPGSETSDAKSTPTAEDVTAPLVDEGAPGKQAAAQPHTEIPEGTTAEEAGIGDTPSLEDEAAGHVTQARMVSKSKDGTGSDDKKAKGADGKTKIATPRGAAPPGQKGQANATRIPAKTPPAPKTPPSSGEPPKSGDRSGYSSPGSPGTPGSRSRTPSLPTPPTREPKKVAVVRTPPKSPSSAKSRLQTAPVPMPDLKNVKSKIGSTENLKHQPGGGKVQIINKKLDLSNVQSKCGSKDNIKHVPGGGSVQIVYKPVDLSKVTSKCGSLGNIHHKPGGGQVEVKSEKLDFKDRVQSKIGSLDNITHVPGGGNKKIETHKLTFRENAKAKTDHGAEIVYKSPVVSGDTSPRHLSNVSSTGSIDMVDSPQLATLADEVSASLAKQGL
Protocol: Fresh frozen, autopsy-confirmed human PD anterior cingulate cortex brain tissue blocks (1 cm^3) were obtained from Dr. Thomas Beach at Banner/Sun Health AZ with funding from the Michael J. Fox Foundation and contained frequent α-synuclein aggregates and no other detectable aggregated amyloid species. The frozen tissue blocks were prepared for the binding assays as previously described[47],[48], except that equal quantities of the homogenates of three AD brains (AD1-AD3, Table S1) were pooled, as were homogenates from three PSP brains (PSP1-PSP3), three CBD brains (CBD1-CBD3), three Pick’s brains (PiD1-PiD3), and 4 PD brains (PD1-PD4) in order to help minimize the inter-subject variability within the different neuropathological groups. Individual subcortical brain tissues from a PSP subject (PSP4) and a CBD subject (CBD4), as well as with the middle frontal cortex of a control subject, were prepared for the binding assays as previously described[47],[48].
The equilibrium inhibition constant (Ki) values of the unlabeled compounds were determined versus tritium-labeled radioligands using published methods.

[2] = Radiometabolite analysis in rat plasma and brain homogenates; assay type: in vivo, rat (Sprague-Dawley); settings: for parent fraction of radioactivity in brain homogenates: rats
Protocol: Radiometabolite analysis was performed ex vivo in plasma and brain homogenates from rats (n = 5, 3 female and 2 male) at 30 and 60 min after radiotracer injection (Figs. S11–S16). […] The parent fraction in plasma was 6% at 30 min and 5% at 60 min in the two male rats, respectively, and 32% at 30 min (n = 1) and 18% and 17% at 60 min (n = 2) in the female rats. Different rates of metabolism between male and female rats may have contributed to the differences in kinetics observed in the brain PET scans. No lipophilic radiometabolites were detected in plasma or brain. Parent [^18F]OXD-2314 accounted for 82 ± 7% (n = 2) and 80 ± 5% (n = 3) of the radioactivity in rat brain homogenates by 30 and 60 min post-injection of the radiotracer, respectively. The rats were not perfused with saline immediately prior to sacrifice, so that radiometabolites in blood were trapped in the brain and likely accounted for a portion of the polar radiometabolites found in brain, as cerebral blood volume in rats is approximately 4–5% of total brain volume.
Five adult Sprague-Dawley rats (3 F/2 M, 378 ± 51 g) were used in [^18F]OXD-2314 radiometabolite analysis. Following injection of 46.7 ± 3.3 MBq of the radiotracer through a tail-vein catheter, rats were sacrificed by decapitation 30 min (n = 2) and 60 min (n = 3) post-injection. Trunk blood was collected and centrifuged for 5 min at 2500 × g, and the plasma was collected. Brains were quickly extracted and homogenized with a BeadBug™ (Benchmark Scientific; Sayreville, NJ, USA) in 3.2 mL acetonitrile together with 1 μg of unlabeled parent compound, then 1.6 mL deionized H2O was added and mixed. The homogenate was centrifuged at 12,000 × g for 5 min, and the supernatant was collected. Parent radiotracer was separated from metabolites in plasma and brain extract by column-switching HPLC in a mobile phase of 40/60 CH3CN/100 mM NH4HCO2 (v/v) and analyzed with PowerChrom 2.6.15 (eDAQ).

[3] = Dynamic PET imaging with [^18F]OXD-2314 in rhesus macaque (baseline and displacement); assay type: in vivo
Protocol: Dynamic PET imaging was performed in a rhesus macaque (macaca mulatta) monkey following the injection of [^18F]OXD-2314 at baseline (104.9 MBq, n = 1) and was repeated in a second [^18F]OXD-2314 study (115.8 MBq, n = 1) where a displacing dose of unlabeled OXD-2314 (0.5 mg/kg) was administered 10 min after [^18F]OXD-2314 injection to verify the absence of specific binding in NHP brain. Venous blood samples were drawn to characterize the metabolic fate of [^18F]OXD-2314 in the macaque. Dynamic [^18F]OXD-2314 PET imaging was also performed in a male (106.6 MBq, n = 1) and a female (115.8 MBq, n = 1) baboon (papio anubis), and venous blood samples were drawn in both baboons to characterize potential effects of sex on radiometabolism. Bilateral regions of interest were defined on 5–8 contiguous axial image planes for the lateral temporal cerebral cortex, cerebellum, striatum, and whole brain, which were used to sample dynamic [^18F]OXD-2314 PET images to determine the time-varying radioactivity concentration expressed in SUV units. [^18F]OXD-2314 readily entered macaque brain (whole brain peak ~2.2 SUV at ~2 min) and distributed uniformly throughout cortical and subcortical grey matter regions (Fig. 5A). […] Radiometabolite analysis of macaque venous blood identified only one, polar radiometabolite, which increased from 37% at 10 min to 77% at 90 min post-injection and was not likely brain penetrant (Figs. S19, S20).
NHP imaging studies in a male (13 kg) macaca mulata monkey and male (25.7 kg) and female (14.2 kg) papio anubis baboons were carried out in accordance with the guidelines set forth by the Institutional Animal Care and Use Committee at the University of Pittsburgh. Additional details regarding the maintenance of an active environmental enrichment program for the housed NHPs are described in Supplemental Information. Dynamic [^18F]OXD-2314 PET imaging of the brains of the isoflurane anesthetized NHPs was performed using a Siemens Biograph mCT Flow 64-4 R PET/CT scanner ([…], maximum intrinsic spatial resolution of 4.3 mm FWHM[53]. Following a low-dose CT scan for attenuation correction of PET emission data, [^18F]OXD-2314 was injected intravenously and emission data were acquired in list-mode for a period of 90 min. Emission data were binned into a dynamic series of 32 frames (20 sec-10 min) and reconstructed using filtered back projection with Fourier rebinning (FORE + FBP) with standard corrections applied that included attenuation, scatter, electronics dead-time, and physical decay.

Row | Compound | Ki [1] | % Parent Brain ([2]; female rat, 30 min) | parent fraction in plasma ([2]; female rat, 30 min post-injection) | % Parent Brain ([2]; female rats, 60 min) | parent fraction in plasma ([2]; female rats, 60 min post-injection) | % Parent Brain ([2]; male rat, 30 min) | parent fraction in plasma ([2]; male rat, 30 min post-injection) | % Parent Brain ([2]; male rat, 60 min) | parent fraction in plasma ([2]; male rat, 60 min post-injection) | parent fraction of radioactivity in brain homogenates ([2]; 30 min post-injection, n = 2) | parent fraction of radioactivity in brain homogenates ([2]; 60 min post-injection, n = 3) | initial brain uptake ([3]; NHP) | ratio initial maximum to late minimum brain radioactivity ([3]; NHP) | 2:90 min radioactivity concentration ratio ([3]; macaque whole brain) | time of whole brain peak ([3]; macaque, baseline) | whole brain clearance half-time ([3]; macaque, baseline) | whole brain peak uptake ([3]; macaque, baseline, n = 1)
1 | COC1CCCN(c2ccc(-c3cc4cc(O)ccc4[nH]3)c(F)n2)C1 (centres unmarked) [OXD-2314, 2-(2-fluoro-6-(3-methoxypiperidin-1-yl)pyridin-3-yl)-1H-indol-5-ol] | 4.8 nM | – | – | – | – | – | – | – | – | – | – | – | – | – | – | – | –
2 | CO[C@H]1CCCN(c2ccc(-c3cc4cc(O)ccc4[nH]3)c([18F])n2)C1 [[^18F]OXD-2314] | – | 77.11% | 32% and 32.43% | 81.01% and 83.78% | 18% and 17% and 17.66% and 17.32% | 87.09% | 6% and 5.79% | 74.16% | 5% | 82 ± 7% | 80 ± 5% | > 2 SUV | ~ 4 | 3.9 | ~ 2 min | ~ 22 min | ~ 2.2 SUV
